{"source": "patent US20150309047A1", "about": "“CIRCULATING PROTEOLYTIC BIOMARKERS OF CELL DEATH AND METHODS FOR THE USE THEREOF” (The Regents of the University of California, priority 2014, published 2015)", "format_in_all_cases": "cell-based, human", "key": {"[1]": {"tested_on": "Jurkat cells", "assay": "Immunoblotting of caspase substrate proteolysis during apoptosis in Jurkat cells", "experimental": "Jurkat cells at a density of 1×10^6 cells/ml were treated with etoposide (50 μM) for 0, 2, 4, 8, 12, and 24 hours prior to harvesting. Harvested cells were pelleted at 2,000×g and 25° C. for 5 minutes, washed twice with phosphate buffered saline, and lysed at a concentration of 2×10^7 cells/ml in 1.0% SDS, phosphate buffered saline, 100 μM Z-VAD-FMK, 100 μM E-64, 1 mM PMSF, 1 mM AEBSF, 5 mM EDTA, and 10 mM sodium butyrate. Whole cell lysates were sonicated to shear genomic DNA, normalized to a protein concentration of approximately 2 mg/ml, as determined by BCA assay (Pierce). Cell lysates for each apoptotic timepoint were then analyzed by SDS-PAGE and Western blot. Mouse monoclonal anti-caspase-3 (#9668) and rabbit polyclonal anti-HDAC3 (#2632) antibodies were purchased from Cell Signaling Technology. Mouse monoclonal anti-DFF45 (#611036) antibody was purchased from BD Transduction Laboratories. Goat polyclonal anti-N-Cor (#sc-1611) and rabbit polyclonal anti-HDAC7 (#sc-11412) antibodies were purchased from Santa Cruz Biotechnology. Rabbit polyclonal anti-TBLR1 (#A300-408A), rabbit polyclonal anti-SHARP (#A301-119A), and rabbit polyclonal anti-RBBP7 (#A300-959A) antibodies were purchased from Bethyl Laboratories. Rabbit polyclonal anti-SMRTe (#06-891) antibody was purchased from Millipore. Western blots were imaged using SuperSignal West Femto Substrate (Pierce) with a FluorChem SP imager (Alpha Innotech). DNA fragmentation of whole cell DNA was analyzed by agarose gel with the Apoptotic DNA Ladder Kit (Roche)."}, "[2]": {"tested_on": "MM1.S", "assay": "N-terminal labeling and MS of proteolytic fragments released into media from drug-treated cultured cells", "settings": "MM1.S treated with bortezomib for at least 21 h", "experimental": "(§1) MM1.S and SU-DHL-8 lines were obtained from ATCC; MOLM-13 from DMSZ. Cell lines were grown in RPMI-1640 media without fetal bovine serum for 24 h prior to drug treatment at indicated doses. After treatment, cells and debris were separated from media by low speed (800×g, 5 min), followed by high speed (24,000×g, 1 h) centrifugation. Total protein in media was precipitated with trichloroacetic acid, resuspended in 8M guanidine HCl, then subjected to N-terminal labeling as described (Wiita A P, et al. (2013) Global cellular response to chemotherapy-induced apoptosis. Elife 2:e01236).\n(§2) Three cell lines treated with different drugs were evaluated: i) MM1.S, derived from multiple myeloma and treated with the proteasome inhibitor bortezomib, ii) MOLM-13, derived from acute myeloid leukemia and treated with the nucleoside analog cytarabine, and iii) SU-DHL-8, derived from diffuse large B-cell lymphoma and treated with the DNA-damaging agent doxorubicin. All of these conditions reflect the diagnoses of patients in the discovery cohort combined with clinically used chemotherapeutics. Under each condition the cells were either treated with drug or mock-treated for at least 21 h. […] After removing whole cells, proteins in the media were precipitated with trichloroacetic acid and then subjected to N-terminal labeling by subtiligase. FBS-free media was used in these experiments to avoid contamination from normal bovine plasma proteins."}, "[3]": {"tested_on": "MOLM-13", "assay": "N-terminal labeling and MS of proteolytic fragments released into media from drug-treated cultured cells", "settings": "MOLM-13 treated with cytarabine for at least 21 h", "experimental": "as §1, §2"}, "[4]": {"tested_on": "SU-DHL-8", "assay": "N-terminal labeling and MS of proteolytic fragments released into media from drug-treated cultured cells", "settings": "SU-DHL-8 treated with doxorubicin for at least 21 h", "experimental": "as §1, §2"}, "[5]": {"tested_on": "Jurkat cells", "assay": "Subtiligase N-terminal labeling and LC/MS/MS degradomic analysis of etoposide-treated apoptotic Jurkat cells", "settings": "Jurkat cells treated with etoposide", "experimental": "Jurkat clone E6-1 (ATCC) cells were grown in RPMI-1640 supplemented with 10% fetal bovine serum, sodium pyruvate, and antibiotics. Normal cells were harvested for experiments at a density of 1×10^6 cells/ml. For apoptotic samples, cells at a density of 1×10^6 cells/ml were treated with etoposide (50 μM) for 12 hours prior to harvesting. Harvested cells (0.1 to 1 billion) were pelleted at 2,000×g and 25° C. for 5 minutes, washed twice with phosphate buffered saline, and lysed at a typical concentration of 2×10^8 cells/ml in 1.0% Triton X-100, 100 mM BICINE pH 8.0, 100 μM Z-VAD-FMK, 100 μM E-64, 1 mM PMSF, 1 mM AEBSF, and 5 mM EDTA. Cell lysates were incubated at room temperature for 1 hour to allow complete inhibition of endogenous protease and esterase activity, and centrifuged at 21,000×g and 4° C. for 15 minutes to pellet insoluble material. Clarified supernatant was immediately used in ligation reactions at a protein concentration of approximately 20 mg/ml, as determined by Bradford assay (Bio-Rad).\nSubtiligase (1 μM), biotinylated peptide ester (1 mM), and DTT (2 mM) were added to either control or apoptotic cell lysate. Ligation reactions were typically left to proceed at room temperature for 60 minutes. […]"}, "[6]": {"settings": "Jurkat cells, 50 μM etoposide, immunoblot"}}, "note": "Residues, ends and D or L forms follow the SMILES beside them. *: point of attachment. Cbz = O=C(OCc1ccccc1)*; CH2F = FC*"}
{"smiles": "COC(=O)C[C@H](NC(=O)[C@H](C)NC(=O)[C@@H](NC(=O)OCc1ccccc1)C(C)C)C(=O)CF", "note": "[Z-VAD(OMe)-fmk] (Cbz-Val-Ala-Asp(OMe)-CH2F)", "values": [{"measurement": "cleavage of representative substrates HDAC7, Ku80, RCOR2, TBLR1, and UBP36", "setting": "[1]; etoposide-treated Jurkat cells with caspase inhibitor", "result": "blocked"}]}
{"smiles": "CC(C)C[C@H](NC(=O)[C@H](Cc1ccccc1)NC(=O)c1cnccn1)B(O)O", "note": "[bortezomib]", "values": [{"measurement": "apoptosis of treated cells", "setting": "[2]", "result": "at least 50%"}]}
{"smiles": "Nc1ccn([C@@H]2O[C@H](CO)[C@@H](O)[C@@H]2O)c(=O)n1", "note": "[cytarabine]", "values": [{"measurement": "apoptosis of treated cells", "setting": "[3]", "result": "at least 50%"}]}
{"smiles": "COc1cccc2c1C(=O)c1c(O)c3c(c(O)c1C2=O)C[C@@](O)(C(=O)CO)C[C@@H]3O[C@H]1C[C@H](N)[C@H](O)[C@H](C)O1", "note": "[doxorubicin]", "values": [{"measurement": "apoptosis of treated cells", "setting": "[4]", "result": "at least 50%"}]}
{"smiles": "COc1cc([C@@H]2c3cc4c(cc3[C@@H](O[C@@H]3O[C@@H]5CO[C@@H](C)O[C@H]5[C@H](O)[C@H]3O)[C@H]3COC(=O)[C@H]23)OCO4)cc(OC)c1O", "note": "[etoposide]", "values": [{"measurement": "proteolysis of CM, Ku80, LCOR, and RBBP7 (time courses)", "setting": "[1]; [6]", "result": "partial cleavage"}, {"measurement": "proteolysis of HDAC6, HDAC7, N-CoR, RCOR2, SHARP, TBLR1, UBPS, and UBP36 (time courses)", "setting": "[1]; [6]", "result": "full cleavage"}, {"measurement": "N-termini identified in apoptotic cells derived from P1 aspartate cleavages", "setting": "[5]; large-scale (2D LC/MS/MS) experiments", "result": 43, "unit": "%"}, {"measurement": "N-termini identified in apoptotic cells derived from P1 aspartate cleavages", "setting": "[5]; small-scale (1D LC/MS/MS) experiments", "result": 43, "unit": "%"}]}
